For data set [1], the target named is T1, Catechol O-methyltransferase (Homo sapiens, UniProt P21964).
T1 sequence (P21964 whole entry): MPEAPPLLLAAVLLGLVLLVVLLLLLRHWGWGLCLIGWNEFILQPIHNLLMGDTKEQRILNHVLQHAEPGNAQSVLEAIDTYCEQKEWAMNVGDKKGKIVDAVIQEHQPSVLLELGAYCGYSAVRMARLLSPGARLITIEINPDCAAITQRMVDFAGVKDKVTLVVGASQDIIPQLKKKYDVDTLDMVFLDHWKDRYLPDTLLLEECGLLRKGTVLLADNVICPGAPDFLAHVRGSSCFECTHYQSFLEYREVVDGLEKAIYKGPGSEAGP
As to the kind of experiment: Inhibition of recombinant wild-type human COMT expressed in Escherichia coli BL21 using 4-nitrocatechol-Alexa488 as substrate in presence of cofactor SAM preincubated for 1 min followed by substrate addition and measured every 60 sec up to 180 times by fluorescence based microtiter plate reader analysis.

Data set [2] is described as follows: Solubility of compound. Type of data set: physicochemical.
Data set [3] is described as follows: Distribution coefficient, log D of compound in octanol and water at pH 7.4. Type of data set: physicochemical.

As a reminder, the IC50 is the concentration at which inhibition is half-maximal. By solubility is commonly meant the concentration that dissolves in the medium under given conditions. Read a low solubility as little dissolved substance. As usually defined, the logD is the decadic logarithm of the distribution of all forms, ionised or not, between an organic phase and buffer at a given pH. A higher logD goes with higher lipophilicity.

Molecules are shown by their SMILES. In brackets after ≈: the same amount, converted by molar mass.

In the case of `Cc1nc(C)c(-c2cc(C(C)(C)c3ccccc3)[nH]n2)s1`, in data set [1], the IC50 was 1.1 µM. This compound also had a solubility in data set [2] of 4 µg/mL (≈ 13.4 µM). This compound gave a logD in data set [3] of 4.1.

`CCc1cc(-c2sc(C)nc2C)n[nH]1`: the IC50 in data set [1] turned out to be 20 µM. Besides, the logD in data set [3] stood at 2.6.

Consider `CCC(c1ccccc1)c1cc(-c2sc(C)nc2C)n[nH]1` (stereo not given), for which, in data set [1], the IC50 turned out to be 21 µM. In addition, in data set [2], the concentration in solution (solubility) was 24 µg/mL (≈ 80.7 µM). The compound also had a logD in data set [3] of 4.3.

`Cc1nc(C)c(-c2cc(Cc3ccc(-c4ccccc4)cc3)[nH]n2)s1`: the IC50 in data set [1] was 3.2 µM.

With `COc1ccc(C2(c3cc(-c4sc(C)nc4C)n[nH]3)CC2)cc1`, the IC50 in data set [1] was found to be 0.075 µM. The compound also gave a solubility in data set [2] of 2 µg/mL (≈ 6.15 µM). The same compound showed a logD in data set [3] of 4.1.

Consider `Cc1nc(C)c(-c2cc(Cc3ccccc3)[nH]n2)s1`, for which the IC50 in data set [1] stood at 2 µM. Further, in data set [2], the concentration in solution (solubility) was 15 µg/mL (≈ 55.7 µM). Besides, in data set [3], the logD was 3.6.

As for `Cc1ccc(-c2nc(C)c(-c3cc[nH]n3)s2)cc1`, the IC50 in data set [1] stood at 11 µM.

Regarding `Cc1nc(C)c(-c2cc(Cc3ccc(-c4cnn(C)c4)cc3)[nH]n2)s1`, the IC50 in data set [1] was 1.3 µM. This compound gave a solubility in data set [2] of 4 µg/mL (≈ 11.4 µM). Moreover, the log distribution coefficient (logD) in data set [3] came out at 3.9.

For the compound `Cc1nc(C)c(-c2cc(CCCc3ccccc3)[nH]n2)s1`, the IC50 in data set [1] is 34 µM. In addition, in data set [2], the solubility worked out at 8 µg/mL (≈ 26.9 µM). The compound also gave a pH-dependent lipophilicity (logD) in data set [3] of 4.4.

Turning to `COc1ccc([C@@H](C)c2cc(-c3sc(C)nc3C)n[nH]2)cc1`, the IC50 in data set [1] was 0.47 µM. The same compound came in with a solubility in data set [2] of 5 µg/mL (≈ 16 µM). For the same compound, the logD in data set [3] worked out at 4.

Regarding `Cc1nc(-c2ccccc2)sc1-c1cc[nH]n1`, the IC50 in data set [1] is 24 µM.

With `Cc1nc(C)c(-c2cc(C(C)c3ccccc3)[nH]n2)s1` (stereo not given), the IC50 in data set [1] came to 0.9 µM. In data set [2], this compound had a solubility of 3 µg/mL (≈ 10.6 µM). This compound also gave a logD in data set [3] of 3.9.

`Cc1nc(C)c(-c2cc([C@@H](C)c3ccccc3)[nH]n2)s1`: in data set [1], the IC50 worked out at 1.1 µM.

For the compound `Cc1nc(C)c(-c2cc([C@H](C)c3ccccc3)[nH]n2)s1`, in data set [1], the IC50 turned out to be 0.7 µM. This compound showed a solubility in data set [2] of 5 µg/mL (≈ 17.6 µM). Moreover, in data set [3], the logD was found to be 4.

As for `Cc1nc(C2CC2)c(-c2cc[nH]n2)s1`, the IC50 in data set [1] was more than 625 µM.

With `Cc1nc(C)c(-c2cc(C3(c4ccccc4)CC3)[nH]n2)s1`, in data set [1], the IC50 is 0.21 µM. Also, the concentration in solution in data set [2] (solubility) came to 1 µg/mL (≈ 3.39 µM). In data set [3], this compound gave a logD of 4.2.

In the case of `Cc1nc(C)c(-c2cc(CCc3ccccc3)[nH]n2)s1`, in data set [1], the IC50 was 8 µM. In addition, the solubility in data set [2] is 4 µg/mL (≈ 14.1 µM). The logD in data set [3] stood at 4.

Consider `Cc1nc(Cc2ccccc2)sc1-c1cc[nH]n1`, for which, in data set [1], the IC50 was more than 425 µM.

As for `c1ccc(-c2ncc(-c3cc[nH]n3)s2)cc1`, the IC50 in data set [1] is more than 625 µM.

As for `COc1ccc(Cc2cc(-c3sc(C)nc3C)n[nH]2)cc1`, in data set [1], the IC50 stood at 1 µM. This compound showed a solubility in data set [2] of 2 µg/mL (≈ 6.68 µM). Moreover, in data set [3], the pH-dependent lipophilicity (logD) turned out to be 3.7.

On to `CCc1nc(C)c(-c2cc[nH]n2)s1`, for which the IC50 in data set [1] was found to be 21 µM.

For `COc1ccc([C@H](C)c2cc(-c3sc(C)nc3C)n[nH]2)cc1`, in data set [1], the IC50 came to 0.86 µM. In data set [2], this compound displayed a solubility of 5 µg/mL (≈ 16 µM). In addition, in data set [3], the log distribution coefficient (logD) stood at 3.9.

Regarding `Cc1nc(C)c(-c2cc(-c3ccccc3)[nH]n2)s1`, the IC50 in data set [1] was 130 µM.

These data come from ChEMBL document CHEMBL4673202, “Design of Potent and Druglike Nonphenolic Inhibitors for Catechol O-Methyltransferase Derived from a Fragment Screening Approach Targeting the S-Adenosyl-l-methionine Pocket” (J Med Chem, 2016).
